Earlier results as cited in patent publication US7157444B2, “Aminosalicylate derivatives for treatment of inflammatory bowel disease” (priority 2002, dated 2007).

Details: oral, 40 mL of a suspension of 1 g of ASA in water, fasted healthy subjects

Row | maximum plasma concentration [µg/mL] | time of maximum plasma concentration post-dose | SMILES
1 | 14.7 | Within an hour post-dose | Nc1ccc(O)c(C(=O)O)c1 [ASA, 5-aminosalicylic acid]
2 | 11.4 | Within an hour post-dose | CC(=O)Nc1ccc(O)c(C(=O)O)c1 [N-acetyl-ASA]
